The subject of the experiment is Escherichia coli. As to the kind of experiment: In vivo antibacterial activity against Escherichia coli GR501 harboring lig251 temperature-sensitive mutant gene transformed with plasmid encoding Mycobacterium tuberculosis NAD+ DNA ligase assessed as growth inhibition after 20 hrs by microdilution assay. In kind it is functional. Conditions: GR501, 20 h.

≈ marks a conversion by molar mass, not a printed value.

Broadly, the MIC is the smallest concentration in the dilution series that meets the test's criterion for growth inhibition.

For `O=C1C2(CCCC13CC3c1ccc(F)cc1)CC2c1ccc(F)cc1` (configuration not stated), the MIC amounted to 44.3 µM (≈ 15 µg/mL). Regarding `O=C1C2(CCCC13CC3c1ccc(Br)cc1)CC2c1ccc(Br)cc1` (configuration not stated), the MIC was 52.1 µM (≈ 24 µg/mL).

The values above are taken from ChEMBL document CHEMBL3217431, “Synthesis, in silico screening and bioevaluation of dispiro-cycloalkanones as antitubercular and mycobacterial NAD+-dependent DNA ligase inhibitors” (Medchemcomm, 2011).
